Measured values from PubChem BioAssay AID2060617 (Molecular Pharmacology Branch, DTP, NCI, 2025).
Several values for one entry are separate records, joined by “and”; a condition that tells them apart may be missing. Equal values may be shown once.

Tested on: 485368-065-R4-J2-PDC spheroids with HUVEC/MSC, viability
Assay: Anticancer human tumor 485368-065-R4-J2-PDC patient-derived pancreatic carcinoma cell line growth inhibition [CLK]
Settings: for viability, T/C: stronger effect = lower value
Procedure, shortened: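 Multi-cell-type spheroids combined patient-derived tumor cells with HUVEC endothelial cells and human mesenchymal stem cells. Paired agents were dosed in half-log steps down from about clinical Cmax, or from 10 microM where Cmax was unknown.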

[1] = curve of first compound, second compound 0.0316 µM
[2] = curve of first compound, second compound 0.1 µM
[3] = curve of first compound, second compound 0.316 µM
[4] = curve of first compound, second compound 1 µM
[5] = curve of first compound, second compound 3.16 µM
[6] = curve of first compound, second compound 10 µM
[7] = second compound 0.0316 µM, first compound 0.0316 µM
[8] = second compound 0.0316 µM, first compound 0.1 µM
[9] = second compound 0.0316 µM, first compound 0.316 µM
[10] = second compound 0.0316 µM, first compound 1 µM
[11] = second compound 0.0316 µM, first compound 3.16 µM
[12] = second compound 0.0316 µM, first compound 10 µM
[13] = second compound 0.1 µM, first compound 0.0316 µM
[14] = second compound 0.1 µM, first compound 0.1 µM
[15] = second compound 0.1 µM, first compound 0.316 µM
[16] = second compound 0.1 µM, first compound 1 µM
[17] = second compound 0.1 µM, first compound 3.16 µM
[18] = second compound 0.1 µM, first compound 10 µM
[19] = second compound 0.316 µM, first compound 0.0316 µM
[20] = second compound 0.316 µM, first compound 0.1 µM
[21] = second compound 0.316 µM, first compound 0.316 µM
[22] = second compound 0.316 µM, first compound 1 µM
[23] = second compound 0.316 µM, first compound 3.16 µM
[24] = second compound 0.316 µM, first compound 10 µM
[25] = second compound 1 µM, first compound 0.0316 µM
[26] = second compound 1 µM, first compound 0.1 µM
[27] = second compound 1 µM, first compound 0.316 µM
[28] = second compound 1 µM, first compound 1 µM
[29] = second compound 1 µM, first compound 3.16 µM
[30] = second compound 1 µM, first compound 10 µM
[31] = second compound 3.16 µM, first compound 0.0316 µM
[32] = second compound 3.16 µM, first compound 0.1 µM
[33] = second compound 3.16 µM, first compound 0.316 µM
[34] = second compound 3.16 µM, first compound 1 µM
[35] = second compound 3.16 µM, first compound 3.16 µM
[36] = second compound 3.16 µM, first compound 10 µM
[37] = second compound 10 µM, first compound 0.0316 µM
[38] = second compound 10 µM, first compound 0.1 µM
[39] = second compound 10 µM, first compound 0.316 µM
[40] = second compound 10 µM, first compound 1 µM
[41] = second compound 10 µM, first compound 3.16 µM
[42] = second compound 10 µM, first compound 10 µM
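Note: spheroids exposed to compounds for seven days.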
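Throughout, for viability, T/C: 100% = DMSO vehicle control wells.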

Nc1ccccc1NC(=O)c1ccc(CNC(=O)OCc2cccnc2)cc1 + CN1CCN(c2cc(C(=O)Nc3cc4cc(-c5cnn(C)c5)ccc4cn3)ccn2)CC1
IC50 [1]: 6.96 µM
IC50 [2]: 7.56 µM
IC50 [3]: 2.52 µM
IC50 [4]: < 0.0316 µM
IC50 [5]: < 0.0316 µM
IC50 [6]: < 0.0316 µM
viability, T/C [7]: 88.7%
viability, T/C [8]: 105%
viability, T/C [9]: 91%
viability, T/C [10]: 97.7%
viability, T/C [11]: 91.6%
viability, T/C [12]: 30.7%
viability, T/C [13]: 109%
viability, T/C [14]: 118%
viability, T/C [15]: 99.1%
viability, T/C [16]: 102%
viability, T/C [17]: 93.1%
viability, T/C [18]: 36.2%
viability, T/C [19]: 81.1%
viability, T/C [20]: 82.1%
viability, T/C [21]: 66.8%
viability, T/C [22]: 68.6%
viability, T/C [23]: 45.5%
viability, T/C [24]: 15.6%
viability, T/C [25]: 1.64%
viability, T/C [26]: 1.49%
viability, T/C [27]: 1.21%
viability, T/C [28]: 0.42%
viability, T/C [29]: 0.41%
viability, T/C [30]: 1.05%
viability, T/C [31]: 1.12%
viability, T/C [32]: 1.85%
viability, T/C [33]: 3.03%
viability, T/C [34]: 1.14%
viability, T/C [35]: 1.31%
viability, T/C [36]: 1.7%
viability, T/C [37]: 1.94%
viability, T/C [38]: 2.06%
viability, T/C [39]: 1.81%
viability, T/C [40]: 2.05%
viability, T/C [41]: 1.05%
viability, T/C [42]: 1.74%

CCc1c2c(nc3ccc(O)cc13)-c1cc3c(c(=O)n1C2)COC(=O)[C@]3(O)CC
viability, T/C (compound 0.00316 µM): 46.5% and 55.5%
viability, T/C (compound 0.01 µM): 22.5% and 24.9%
viability, T/C (compound 0.0316 µM): 10.9% and 13.2%
viability, T/C (compound 0.1 µM): 7.63% and 7.75%
viability, T/C (compound 0.316 µM): 7.05% and 6.79%
viability, T/C (compound 1 µM): 14.8% and 15.6%
IC50 (curve of compound): < 0.00316 µM and 0.00383 µM

CC1(C)CCC(CN2CCN(c3ccc(C(=O)NS(=O)(=O)c4ccc(NCC5CCOCC5)c([N+](=O)[O-])c4)c(Oc4cnc5[nH]ccc5c4)c3)CC2)=C(c2ccc(Cl)cc2)C1 + CNC(=O)c1ccc(Nc2nc(OC3CCCC3)c3c(-c4ccc5nc(C)oc5c4)c[nH]c3n2)c(OC)c1
IC50 [1]: 7.11 µM
IC50 [2]: 7.32 µM
IC50 [3]: 6.86 µM
IC50 [4]: 6.75 µM
IC50 [5]: 6.51 µM
IC50 [6]: 6.43 µM
viability, T/C [7]: 101%
viability, T/C [8]: 95.1%
viability, T/C [9]: 85.5%
viability, T/C [10]: 102%
viability, T/C [11]: 117%
viability, T/C [12]: 28.9%
viability, T/C [13]: 98.2%
viability, T/C [14]: 97.6%
viability, T/C [15]: 98.3%
viability, T/C [16]: 105%
viability, T/C [17]: 107%
viability, T/C [18]: 30.8%
viability, T/C [19]: 86.7%
viability, T/C [20]: 89.8%
viability, T/C [21]: 93.4%
viability, T/C [22]: 89.5%
viability, T/C [23]: 97.1%
viability, T/C [24]: 29.9%
viability, T/C [25]: 74.6%
viability, T/C [26]: 76%
viability, T/C [27]: 80.7%
viability, T/C [28]: 87.2%
viability, T/C [29]: 98.7%
viability, T/C [30]: 32.6%
viability, T/C [31]: 74%
viability, T/C [32]: 73.9%
viability, T/C [33]: 74%
viability, T/C [34]: 73.5%
viability, T/C [35]: 93.5%
viability, T/C [36]: 33.5%
viability, T/C [37]: 72.6%
viability, T/C [38]: 72%
viability, T/C [39]: 62.2%
viability, T/C [40]: 72.6%
viability, T/C [41]: 90.8%
viability, T/C [42]: 35.2%

O=c1[nH]cc(F)c(=O)[nH]1
viability, T/C (compound 0.0316 µM): 95.5% and 88.4%
viability, T/C (compound 0.1 µM): 96.6% and 84.4%
viability, T/C (compound 0.316 µM): 95.6% and 87.4%
viability, T/C (compound 1 µM): 96.9% and 95.8%
viability, T/C (compound 3.16 µM): 96.6% and 96%
viability, T/C (compound 10 µM): 88.5% and 82.3%
IC50 (curve of compound): > 10 µM
